Source: article PMC7932080, “In vitro study of Hesperetin and Hesperidin as inhibitors of zika and chikungunya virus proteases” (PLoS ONE, 2021)
Several values for one entry are separate records, joined by “and”; a condition that tells them apart may be missing. Equal entries are not always repeated. Where two headings read alike, the source gives them in different places.

Assays:
[1] = target: T1, CHIKV nsP2^pro (Chikungunya virus, UniProt Q8JUX6); assay: CHIKV nsP2^pro FRET-based inhibition assay; assay type: biochemical; conditions: for % activity, mean / % inhibition, mean: mean n=3
[2] = tested on: trypsin; parameters: method as in PMID 23124490; conditions: cited from earlier work
[3] = tested on: CHIKV; conditions: cited from earlier work
[4] = tested on: CHIKV; conditions: cited from earlier work; remark: listed apart in the source
[5] = dose of administration 20 mg/kg, cited from earlier work
[6] = cited from earlier work
[7] = target: T2, ZIKV NS2B/NS3^pro (Zika virus, UniProt A0A024B7W1); assay: Intrinsic Trp fluorescence titration (KD); conditions: Trp fluorescence quenching, ± STD
[8] = target: T1, CHIKV nsP2^pro; assay: Intrinsic Trp fluorescence titration (KD); conditions: Trp fluorescence quenching, ± STD
[9] = target: T2, ZIKV NS2B/NS3^pro; assay: Thermal unfolding by fluorescence spectroscopy; conditions: 10 µM protease, 75 µM ligand
[10] = tested on: ZIKV; assay: Plaque reduction antiviral assay in Vero cells; conditions: ~50 PFU, two inhibitor concentrations
[11] = tested on: CHIKV; assay: Plaque reduction antiviral assay in Vero cells; conditions: ~50 PFU, two inhibitor concentrations
[12] = target: T2, ZIKV NS2B/NS3^pro; assay: ZIKV NS2B/NS3^pro inhibition assay, fluorogenic substrate Pyr-Arg-Thr-Lys-Arg-AMC
[13] = read-out: Inhibition of protease activity, preliminary inhibition test, compound 20 µM

T2 sequence (A0A024B7W1 1425-1464): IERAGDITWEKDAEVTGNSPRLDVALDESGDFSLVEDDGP
T2 sequence (A0A024B7W1 1503-1680): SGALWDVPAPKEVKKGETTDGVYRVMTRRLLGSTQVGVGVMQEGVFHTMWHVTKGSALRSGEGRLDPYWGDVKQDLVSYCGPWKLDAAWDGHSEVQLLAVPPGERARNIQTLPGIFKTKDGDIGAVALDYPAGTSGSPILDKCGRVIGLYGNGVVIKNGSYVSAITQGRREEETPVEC
T1 sequence (Q8JUX6 1001-1333): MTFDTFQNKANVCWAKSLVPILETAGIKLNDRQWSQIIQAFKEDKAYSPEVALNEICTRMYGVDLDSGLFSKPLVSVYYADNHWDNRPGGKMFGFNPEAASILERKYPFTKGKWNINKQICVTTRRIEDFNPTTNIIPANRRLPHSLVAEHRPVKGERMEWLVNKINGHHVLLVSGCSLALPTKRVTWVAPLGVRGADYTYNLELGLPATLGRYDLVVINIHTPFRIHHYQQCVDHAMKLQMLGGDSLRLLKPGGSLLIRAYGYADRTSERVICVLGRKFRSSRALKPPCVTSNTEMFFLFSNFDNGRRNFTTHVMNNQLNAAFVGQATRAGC

## COc1ccc(C2CC(=O)c3c(O)cc(O)cc3O2)cc1O (centres unmarked) [HST, 3’,5,7-trihydroxy-4’-methoxyflavanone]
[1]; (1.4*pIC50)/N
  LE (ligand efficiency): 0.36
[1]; HST 1 µM, replicates A-C
  inhibition at 1 µM: 31%
[1]; HST 5 µM, replicates A-C
  inhibition at 5 µM: 67%
[1]; HST 10 µM, replicates A-C
  inhibition at 10 µM: 78%
[1]; HST 20 µM, replicates A-C
  inhibition at 20 µM: 93%
[1]; HST 30 µM, replicates A-C
  inhibition at 30 µM: 100%
[1]; HST 0.25 (µM)
  % activity, mean: 91.3333%
  % inhibition, mean: 8.667%
[1]; HST 0.5 (µM)
  % activity, mean: 80.6667%
  % inhibition, mean: 19.3333%
[1]; HST 0.5 (µM), replicates A-C
  inhibition at 0.5 µM: 17%
[1]; HST 1 (µM)
  % activity, mean: 65.3333%
  % inhibition, mean: 34.6667%
[1]; HST 2.5 (µM), replicates A-C
  inhibition at 2.5 µM: 51%
[1]; HST 5 (µM)
  % activity, mean: 33.3333%
  % inhibition, mean: 66.6667%
[1]; HST 10 (µM)
  % activity, mean: 20.3333%
  % inhibition, mean: 79.6667%
[1]; HST 15 (µM)
  % activity, mean: 11.6667%
  % inhibition, mean: 88.3333%
[1]; HST 15 (µM), replicates A-C
  inhibition at 15 µM: 86%
[1]; HST 20 (µM)
  % activity, mean: 5.333%
  % inhibition, mean: 94.6667%
[1]; HST 25 (µM)
  % activity, mean: 2.333%
  % inhibition, mean: 97.6667%
[1]; HST 25 (µM), replicates A-C
  inhibition at 25 µM: 96%
[1]; IC50, 1 µM protease, 3 µM substrate, mean ± SD, n=3
  IC50: 2500 ± 400 nM
[1]; IC50, single replicate, HST, single replicates A, B, C
  IC50: 2.95 µM (2×) and 2.4 µM (2×) and 2.09 µM (2×)
[1]; IC50 mean, HST, mean of triplicate
  IC50: 2480 nM
[1]; Lineweaver-Burk plot
  Inhibition mode: noncompetitive
[1]; Log conc nM (IC50 determination triplicate), HST, single replicates A, B, C
  IC50: 2950 nM and 2400 nM and 2090 nM
[1]; read-out: % activity, HST 0.25 (µM), replicates A-C
  remaining activity at 0.25 µM: 95%
[1]; read-out: % activity, HST 0.5 (µM), replicates A-C
  remaining activity at 0.5 µM: 83%
[1]; read-out: % activity, HST 1 (µM), replicates A-C
  remaining activity at 1 µM: 69%
[1]; read-out: % activity, HST 2.5 (µM), replicates A-C
  remaining activity at 2.5 µM: 49%
[1]; read-out: % activity, HST 5 (µM), replicates A-C
  remaining activity at 5 µM: 33%
[1]; read-out: % activity, HST 10 (µM), replicates A-C
  remaining activity at 10 µM: 22%
[1]; read-out: % activity, HST 15 (µM), replicates A-C
  remaining activity at 15 µM: 14%
[1]; read-out: % activity, HST 20 (µM), replicates A-C
  remaining activity at 20 µM: 7%
[1]; read-out: % activity, HST 30 (µM), replicates A-C
  remaining activity at 30 µM: 0%
[1]; [13]
  inhibition at 20 µM: ~90%
[2]
  IC50: 104 µM
[3]
  Intracellular replication of CHIKV: inhibit
[4]
  Antiviral activity in anti-entry, anti-adsorption, direct virucidal assays: no antiviral activity
[5]
  AUC inf.: 3.49 ± 0.37 µM·h
  AUC last: 3.01 ± 0.29 µM·h
  Cl systemic clearance: 318.2 ± 33.2 mL/min/kg
  MRT mean residence time: 3.60 ± 0.21 h
  T1/2 elimination half-life: 5.32 ± 0.62 h
  Vd volume of distribution: 145.60 ± 8.84 L/kg
[5]; read-out: Co initial concentration
  C0: 7.35 ± 1.71 µM
[6]
  Potential maximal tolerated dose: Citrus flavonoids are extremely safe and without side effects also up to high concentrations of 100 mg/kg to 500 mg/kg.
[7]
  Kd: 17.8 ± 2.9 µM
[8]
  Kd: 31.6 ± 2.5 µM
[9]
  Melting temperature (Tm) of protease-ligand complex: 49 °C
  ΔTm: 6 °C
[10]
  Antiviral activity, plaque reduction: no antiviral activities
[11]
  Antiviral activity, plaque reduction: no antiviral activities
[12]; 3 nM protease, 20 µM substrate, mean ± SD, n=3
  IC50: < 13000 nM
[12]; (1.4*pIC50)/N
  LE (ligand efficiency): 0.31
[12]; HST 1 µM, replicates A-C
  % activity: 97%
  % inhibition: 3%
  activity at 1 µM: 94%
  inhibition at 1 µM: 6%
[12]; HST 5 µM, replicates A-C
  % activity: 85% and 86%
  % inhibition: 15% and 14%
  activity at 5 µM: 88%
  inhibition at 5 µM: 12%
[12]; HST 10 µM, replicates A-C
  % activity: 80%
  % inhibition: 20%
  activity at 10 µM: 78%
  inhibition at 10 µM: 22%
[12]; HST 20 µM, replicates A-C
  % activity: 59% and 63%
  % inhibition: 41% and 37%
  activity at 20 µM: 60%
  inhibition at 20 µM: 40%
[12]; HST 30 µM, mean n=3
  Activity, mean: 43.6667%
[12]; HST 30 µM, replicates A-C
  % activity: 45%
  % inhibition: 55%
  activity at 30 µM: 43%
  inhibition at 30 µM: 57%
[12]; HST 40 µM, mean n=3
  Activity, mean: 35.6667%
[12]; HST 40 µM, replicates A-C
  % activity: 36%
  % inhibition: 64%
  activity at 40 µM: 35%
  inhibition at 40 µM: 65%
[12]; HST 50 µM, mean n=3
  Activity, mean: 24.3333%
[12]; HST 50 µM, replicates A-C
  % activity: 26% and 24%
  % inhibition: 74% and 76%
  activity at 50 µM: 23%
  inhibition at 50 µM: 77%
[12]; HST 60 µM, mean n=3
  Activity, mean: 15.3333%
[12]; HST 60 µM, replicates A-C
  % activity: 14% and 17%
  % inhibition: 86% and 83%
  activity at 60 µM: 15%
  inhibition at 60 µM: 85%
[12]; HST 70 µM, mean n=3
  Activity, mean: 10.6667%
[12]; HST 70 µM, replicates A-C
  % activity: 11%
  % inhibition: 89%
  activity at 70 µM: 10%
  inhibition at 70 µM: 90%
[12]; HST 80 µM, mean n=3
  Activity, mean: 6.333%
[12]; HST 80 µM, replicates A-C
  % activity: 6% and 8%
  % inhibition: 94% and 92%
  activity at 80 µM: 5%
  inhibition at 80 µM: 95%
[12]; HST 90 µM, mean n=3
  Activity, mean: 2%
[12]; HST 90 µM, replicates A-C
  % activity: 2% and 1% and 3%
  % inhibition: 99% and 97%
  inhibition at 90 µM: 98%
[12]; HST 100 µM, mean n=3
  Activity, mean: 0.7667%
[12]; HST 100 µM, replicates A-C
  % activity: 0.5% and 1%
  % inhibition: 99.5% and 99%
  activity at 100 µM: 0.8%
  inhibition at 100 µM: 99.2%
[12]; HST 1 (µM), mean n=3
  Activity, mean: 95%
[12]; HST 5 (µM), mean n=3
  Activity, mean: 86.3333%
[12]; HST 10 (µM), mean n=3
  Activity, mean: 78.6667%
[12]; HST 20 (µM), mean n=3
  Activity, mean: 60.6667%
[12]; HST 120 (µM), mean n=3
  Activity, mean: 0.1667%
  Inhibition, mean: 99.8333%
[12]; HST 120 (µM), replicates A-C
  % activity: 0.1%
  inhibition at 120 µM: 99.9%
[12]; HST 140 (µM), mean n=3
  Activity, mean: 0%
[12]; HST 140 (µM), replicates A-C
  inhibition at 140 µM: 100%
[12]; IC50, single replicate, single replicates A, B, C
  IC50: 14.3 µM (2×) and 12.6 µM (2×) and 11 µM (2×)
[12]; Lineweaver-Burk plot
  Inhibition mode: noncompetitive
[12]; Log conc nM (IC50 determination triplicate), single replicates A, B, C
  IC50: 14300 nM and 12600 nM and 11000 nM
[12]; pIC50, from IC50 by online tool
  IC50: 12600 nM
[12]; read-out: % activity, HST 140 (µM), replicates A-C
  remaining activity at 140 µM: 0%
[12]; [13]
  inhibition at 20 µM: ~40%
[12]; read-out: Inhibition, mean, HST 1 µM, mean n=3
  inhibition at 1 µM: 5%
[12]; read-out: Inhibition, mean, HST 5 µM, mean n=3
  inhibition at 5 µM: 13.7%
[12]; read-out: Inhibition, mean, HST 10 µM, mean n=3
  inhibition at 10 µM: 21.3%
[12]; read-out: Inhibition, mean, HST 20 µM, mean n=3
  inhibition at 20 µM: 39.3%
[12]; read-out: Inhibition, mean, HST 30 µM, mean n=3
  inhibition at 30 µM: 56.3%
[12]; read-out: Inhibition, mean, HST 40 µM, mean n=3
  inhibition at 40 µM: 64.3%
[12]; read-out: Inhibition, mean, HST 50 µM, mean n=3
  inhibition at 50 µM: 75.7%
[12]; read-out: Inhibition, mean, HST 60 µM, mean n=3
  inhibition at 60 µM: 84.7%
[12]; read-out: Inhibition, mean, HST 70 µM, mean n=3
  inhibition at 70 µM: 89.3%
[12]; read-out: Inhibition, mean, HST 80 µM, mean n=3
  inhibition at 80 µM: 93.7%
[12]; read-out: Inhibition, mean, HST 90 µM, mean n=3
  inhibition at 90 µM: 98%
[12]; read-out: Inhibition, mean, HST 100 µM, mean n=3
  inhibition at 100 µM: 99.2%
